# From paper PMC9481151, “Discovery of new symmetrical and asymmetrical nitrile-containing 1,4-dihydropyridine derivatives as dual kinases and P-glycoprotein inhibitors: synthesis, in vitro assays, and in silico studies” (Journal of Enzyme Inhibition and Medicinal Chemistry, 2022)
# What was measured:
# TK-10 = experiment: NCI single dose (10 µM) SRB screen; assay type: cell-based, human; settings: renal cancer, 48 h
# COLO 205 = experiment: NCI single dose (10 µM) SRB screen; assay type: cell-based, human; settings: colon cancer, 48 h
# SK-MEL-28 = experiment: NCI single dose (10 µM) SRB screen; assay type: cell-based, human; settings: melanoma, 48 h
# ACHN = experiment: NCI single dose (10 µM) SRB screen; assay type: cell-based, human; settings: renal cancer, 48 h
# NCI-H460 = experiment: NCI single dose (10 µM) SRB screen; assay type: cell-based, human; settings: non-small cell lung cancer, 48 h
# U251 = experiment: NCI single dose (10 µM) SRB screen; assay type: cell-based, human; settings: CNS cancer, 48 h
# SR = experiment: NCI single dose (10 µM) SRB screen; assay type: cell-based, human; settings: leukaemia, 48 h
# HL-60(TB) = experiment: NCI single dose (10 µM) SRB screen; assay type: cell-based, human; settings: leukaemia, 48 h
# OVCAR-3 = experiment: NCI single dose (10 µM) SRB screen; assay type: cell-based, human; settings: ovarian cancer, 48 h
# HS578T = experiment: NCI single dose (10 µM) SRB screen; assay type: cell-based, human; settings: breast cancer, 48 h
# Bacillus subtilis = experiment: Agar well diffusion method
# IGROV1 = experiment: NCI single dose (10 µM) SRB screen; assay type: cell-based, human; settings: ovarian cancer, 48 h
# Candida albicans = experiment: Agar well diffusion method
# SF-295 = experiment: NCI single dose (10 µM) SRB screen; assay type: cell-based, human; settings: CNS cancer, 48 h
# BT-549 = experiment: NCI single dose (10 µM) SRB screen; assay type: cell-based, human; settings: breast cancer, 48 h
# HOP-92 = experiment: NCI single dose (10 µM) SRB screen; assay type: cell-based, human; settings: non-small cell lung cancer, 48 h
# K-562 = experiment: NCI single dose (10 µM) SRB screen; assay type: cell-based, human; settings: leukaemia, 48 h
# NCI-H23 = experiment: NCI single dose (10 µM) SRB screen; assay type: cell-based, human; settings: non-small cell lung cancer, 48 h
# Aspergillus flavus = experiment: Agar well diffusion method
# HCC-2998 = experiment: NCI single dose (10 µM) SRB screen; assay type: cell-based, human; settings: colon cancer, 48 h
# SK-OV-3 = experiment: NCI single dose (10 µM) SRB screen; assay type: cell-based, human; settings: ovarian cancer, 48 h
# MCF7 = experiment: NCI single dose (10 µM) SRB screen; assay type: cell-based, human; settings: breast cancer, 48 h
# Pseudomonas aeruginosa = experiment: Agar well diffusion method
# MALME-3M = experiment: NCI single dose (10 µM) SRB screen; assay type: cell-based, human; settings: melanoma, 48 h
# T-47D = experiment: NCI single dose (10 µM) SRB screen; assay type: cell-based, human; settings: breast cancer, 48 h
# OVCAR-5 = experiment: NCI single dose (10 µM) SRB screen; assay type: cell-based, human; settings: ovarian cancer, 48 h
# 786-0 = experiment: NCI single dose (10 µM) SRB screen; assay type: cell-based, human; settings: renal cancer, 48 h
# SN12C = experiment: NCI single dose (10 µM) SRB screen; assay type: cell-based, human; settings: renal cancer, 48 h
# NCI 60 cancer cell lines = experiment: NCI single dose (10 µM) SRB screen, mean over panel; assay type: cell-based, human; settings: mean over 60 cell lines, 48 h
# Staphylococcus aureus = experiment: Agar well diffusion method
# RXF 393 = experiment: NCI single dose (10 µM) SRB screen; assay type: cell-based, human; settings: renal cancer, 48 h
# SNB-19 = experiment: NCI single dose (10 µM) SRB screen; assay type: cell-based, human; settings: CNS cancer, 48 h
# MDA-MB-468 = experiment: NCI single dose (10 µM) SRB screen; assay type: cell-based, human; settings: breast cancer, 48 h
# Escherichia coli = experiment: Agar well diffusion method; settings: relative to ciprofloxacin
# NCI-H226 = experiment: NCI single dose (10 µM) SRB screen; assay type: cell-based, human; settings: non-small cell lung cancer, 48 h
# CAKI-1 = experiment: NCI single dose (10 µM) SRB screen; assay type: cell-based, human; settings: renal cancer, 48 h
# M14 = experiment: NCI single dose (10 µM) SRB screen; assay type: cell-based, human; settings: melanoma, 48 h
# UACC-257 = experiment: NCI single dose (10 µM) SRB screen; assay type: cell-based, human; settings: melanoma, 48 h
# SK-MEL-2 = experiment: NCI single dose (10 µM) SRB screen; assay type: cell-based, human; settings: melanoma, 48 h
# HCT-15 = experiment: NCI single dose (10 µM) SRB screen; assay type: cell-based, human; settings: colon cancer, 48 h
# SNB-75 = experiment: NCI single dose (10 µM) SRB screen; assay type: cell-based, human; settings: CNS cancer, 48 h
# KM12 = experiment: NCI single dose (10 µM) SRB screen; assay type: cell-based, human; settings: colon cancer, 48 h
# UACC-62 = experiment: NCI single dose (10 µM) SRB screen; assay type: cell-based, human; settings: melanoma, 48 h
# OVCAR-4 = experiment: NCI single dose (10 µM) SRB screen; assay type: cell-based, human; settings: ovarian cancer, 48 h
# RPMI-8226 = experiment: NCI single dose (10 µM) SRB screen; assay type: cell-based, human; settings: leukaemia, 48 h
# PC-3 = experiment: NCI single dose (10 µM) SRB screen; assay type: cell-based, human; settings: prostate cancer, 48 h
# CCRF-CEM = experiment: NCI single dose (10 µM) SRB screen; assay type: cell-based, human; settings: leukaemia, 48 h
# NCI-H522 = experiment: NCI single dose (10 µM) SRB screen; assay type: cell-based, human; settings: non-small cell lung cancer, 48 h
# NCI-H322M = experiment: NCI single dose (10 µM) SRB screen; assay type: cell-based; settings: non-small cell lung cancer, 48 h
# UO-31 = experiment: NCI single dose (10 µM) SRB screen; assay type: cell-based, human; settings: renal cancer, 48 h
# HCT-116 = experiment: NCI single dose (10 µM) SRB screen; assay type: cell-based, human; settings: colon cancer, 48 h
compound,measurement,setting,value
"CCOC(=O)C1=C(C)NC(C)=C(C(=O)OC(C)C)C1c1cccc(C#N)c1 (racemic) [Compound 2h, (±)-3-Ethyl 5-isopropyl 4-(3-cyanophenyl)-2,6-dimethyl-1,4-dihydropyridine-3,5-dicarboxylate]",GI% TK-10,TK-10,– (Only GI% ≥ 10 are shown)
same,GI% COLO 205,COLO 205,– (Only GI% ≥ 10 are shown)
same,GI% SK-MEL-28,SK-MEL-28,– (Only GI% ≥ 10 are shown)
same,GI% ACHN,ACHN,– (Only GI% ≥ 10 are shown)
same,GI% NCI-H460,NCI-H460,– (Only GI% ≥ 10 are shown)
same,GI% U251,U251,– (Only GI% ≥ 10 are shown)
same,GI% SR,SR,– (Only GI% ≥ 10 are shown)
same,GI% HL-60(TB),HL-60(TB),– (Only GI% ≥ 10 are shown)
same,GI% OVCAR-3,OVCAR-3,– (Only GI% ≥ 10 are shown)
same,GI% HS578T,HS578T,– (Only GI% ≥ 10 are shown)
same,zone of inhibition at 1000 µg/mL,"Bacillus subtilis; Bacillus subtilis, 24 h, read-out: Diameter of inhibition zone, B. subtilis",8 mm
same,"% activity index, B. subtilis",Bacillus subtilis; relative to ciprofloxacin,34.8%
same,GI% IGROV1,IGROV1,– (Only GI% ≥ 10 are shown)
same,zone of inhibition at 1000 µg/mL,"Candida albicans; Candida albicans, 24 h, read-out: Diameter of inhibition zone, C. albicans",8 mm
same,"% activity index, C. albicans",Candida albicans; relative to clotrimazole,29.6%
same,GI% SF-295,SF-295,– (Only GI% ≥ 10 are shown)
same,GI% BT-549,BT-549,– (Only GI% ≥ 10 are shown)
same,GI% HOP-92,HOP-92,– (Only GI% ≥ 10 are shown)
same,GI% K-562,K-562,– (Only GI% ≥ 10 are shown)
same,GI% NCI-H23,NCI-H23,– (Only GI% ≥ 10 are shown)
same,zone of inhibition at 1000 µg/mL,"Aspergillus flavus; Aspergillus flavus, 24 h, read-out: Diameter of inhibition zone, A. flavus",12 mm
same,"% activity index, A. flavus",Aspergillus flavus; relative to clotrimazole,48%
same,GI% HCC-2998,HCC-2998,– (Only GI% ≥ 10 are shown)
same,GI% SK-OV-3,SK-OV-3,– (Only GI% ≥ 10 are shown)
same,GI% MCF7,MCF7,– (Only GI% ≥ 10 are shown)
same,zone of inhibition at 1000 µg/mL,"Pseudomonas aeruginosa; Pseudomonas aeruginosa, 24 h, read-out: Diameter of inhibition zone, P. aeruginosa",10 mm
same,"% activity index, P. aeruginosa",Pseudomonas aeruginosa; relative to ciprofloxacin,43.5%
same,GI% MALME-3M,MALME-3M,– (Only GI% ≥ 10 are shown)
same,GI% T-47D,T-47D,– (Only GI% ≥ 10 are shown)
same,GI% OVCAR-5,OVCAR-5,– (Only GI% ≥ 10 are shown)
same,GI% 786-0,786-0,– (Only GI% ≥ 10 are shown)
same,GI% SN12C,SN12C,– (Only GI% ≥ 10 are shown)
same,Mean GI%,NCI 60 cancer cell lines,0%
same,zone of inhibition at 1000 µg/mL,"Staphylococcus aureus; Staphylococcus aureus, 24 h, read-out: Diameter of inhibition zone, S. aureus",11 mm
same,"% activity index, S. aureus",Staphylococcus aureus; relative to ciprofloxacin,45.8%
same,GI% RXF 393,RXF 393,– (Only GI% ≥ 10 are shown)
same,GI% SNB-19,SNB-19,– (Only GI% ≥ 10 are shown)
same,GI% MDA-MB-468,MDA-MB-468,20%
same,"% activity index, E. coli",Escherichia coli,– (Values below 25 are of limited value and not shown as they refer either to inactive or non-diffusing compounds)
same,GI% NCI-H226,NCI-H226,– (Only GI% ≥ 10 are shown)
same,GI% CAKI-1,CAKI-1,15%
same,GI% M14,M14,– (Only GI% ≥ 10 are shown)
same,GI% UACC-257,UACC-257,– (Only GI% ≥ 10 are shown)
same,GI% SK-MEL-2,SK-MEL-2,– (Only GI% ≥ 10 are shown)
same,GI% HCT-15,HCT-15,– (Only GI% ≥ 10 are shown)
same,GI% SNB-75,SNB-75,15%
same,GI% KM12,KM12,– (Only GI% ≥ 10 are shown)
same,GI% UACC-62,UACC-62,– (Only GI% ≥ 10 are shown)
same,GI% OVCAR-4,OVCAR-4,– (Only GI% ≥ 10 are shown)
same,GI% RPMI-8226,RPMI-8226,– (Only GI% ≥ 10 are shown)
same,GI% PC-3,PC-3,12%
same,GI% CCRF-CEM,CCRF-CEM,– (Only GI% ≥ 10 are shown)
same,GI% NCI-H522,NCI-H522,– (Only GI% ≥ 10 are shown)
same,GI% NCI-H322M,NCI-H322M,– (Only GI% ≥ 10 are shown)
same,GI% UO-31,UO-31,– (Only GI% ≥ 10 are shown)
same,GI% HCT-116,HCT-116,– (Only GI% ≥ 10 are shown)
